Measurements reported in patent US10053447B2, “Fluorescent compounds” (Pierce Biotechnology, Inc, priority 2010, dated 2018).
One block for each compound: values may come before it.

Tests used:
[1] = Quantum yield (QY) measurement, Hamamatsu C9920 PL Absolute Quantum Yield Measurement System; format: physicochemical; conditions: in PBS
Method: The quantum yield (QY) was determined at an excitation wavelength of 500 nm and 530 nm for inventive and commercial compounds, as shown below
QY measurements were performed in PBS using a Hamamatsu C9920 PL Absolute Quantum Yield Measurement System. The maximum absorbance at a 1 cm pathlength was set to 0.08. The lower values for the excitation at 530 nm was due to the rising emission which was not included in the counting because it was too close to the excitation light.
The quantum yield (QY) was determined at an excitation wavelength of 600 nm for inventive and commercial compounds, as shown below
QY measurements were performed in PBS using a Hamamatsu C9920 PL Absolute Quantum Yield Measurement System. The maximum absorbance at a 1 cm pathlength was set to 0.08.
The quantum yield (QY) was determined at an excitation wavelength of 710 nm for inventive and commercial compounds, as shown below.
QY measurements were performed in PBS using a Hamamatsu C9920 PL Absolute Quantum Yield Measurement System. The maximum absorbance at a 1 cm path length was set to 0.08.

[2] = Absorption profile and fluorescence intensity of the free dyes; format: physicochemical; conditions: dyes compared with each other (FIG. 1, 25, 52)
[3] = Storage stability at 50° C. under argon; format: physicochemical
Method: (§1) The inventive compounds were evaluated for stability. All compounds were packed under argon in plastic vials. The vials sere sealed with a drying pad in an aluminium coated pouch, and then stored at 50° C. for seven days. The results of the stability study for selected compounds are shown below:
Purity was determined based on ester activity.
as §1, with “stability compared to commercial dyes.” for “stability.”, “argon as 1 mg portions” for “argon”, “14” for “seven”
The inventive compound 755 Compound 1 (isomer 1)-NHS was evaluated for stability. The compound was packed under argon in plastic vials. The vials sere sealed with a drying pad in an aluminium coated pouch, and then stored at 50° C. for 14 days. Purity was determined by HPLC before and after storage.

[4] = Spectral properties of the dyes compared with commercially available dyes; format: physicochemical; conditions: reactive ester form of the dye
[5] = test system: mouse IgG, rabbit IgG, biotinylated bovine serum albumin (BBSA); experiment: Functional assay, summary over GAM, GAR and SA conjugates; format: binding; conditions: compared with DyLight 549 or DyLight 649 conjugates
Method: Performance of the dye-GAM conjugates, dye-GAR conjugates, and dye-SA conjugates was evaluated in a functional assay. Wells of a 96 white opaque plate were coated with target proteins mouse IgG immunoglobulin, rabbit IgG immunoglobulin, or biotinylated bovine serum albumin (BBSA). One hundred μl mouse or rabbit IgG or BBSA at a concentration of 10 μg/ml was applied to the corresponding wells in columns 1 and 2. The target proteins were serially diluted 1:1 from the wells in columns 2 to 11 using 100 μl PBS. One hundred 100 μl of the samples from the wells in column 11 were discarded. One hundred μl PBS was added to the wells in column 12. The plates were incubated overnight at 4° C. and then blocked 2×200 μl with Thermo Scientific SuperBlock® Blocking Buffer. The coated plates were washed 2×200 μl with PBS-Tween and 1×200 μl with PBS. Conjugates diluted in PBS to 4 μg/ml were added to the corresponding plates (100 μl/well) and then incubated for 1 h in the dark. The plates were washed with 2×200 μl with PBS-Tween and 1×200 μl with PBS and filled with PBS buffer (100 μl/well) prior to scanning on Tecan Safire using 562 nmexcitation/576 nmemission to detect fluorescence intensity.
Performance of the dye-GAM conjugates and dye-GAR conjugates was evaluated in a functional assay. Wells of a 96 well white opaque plate were coated with mouse IgG, or rabbit IgG. One hundred μl mouse or rabbit IgG at a concentration of 10 μg/ml was applied to the corresponding wells in columns 1 and 2. The IgG proteins were serially diluted 1:1 from the wells in columns 2 to 11 using 100 μl PBS. One hundred 100 μl of the samples from the wells in column 11 were discarded. One hundred μl PBS was added to the wells in column 12. […] The plates were washed with 2×200 μl with PBS-Tween and 1×200 μl with PBS and filled with PBS buffer (100 μl/well) prior to scanning on Tecan Safire using the Alexa 647 setting (650 nmexcitation/665 nmemission) and the DyLight 649 setting (654 nmexcitation/673 nmemission to detect fluorescence intensity

U2OS cells; A550 cells = experiment: Immunofluorescence cell based assays, summary statements; parameters: species or system human; conditions: GAM and GAR conjugates
Method: The inventive compounds and commercial dye were evaluated for immunofluorescence in cell based assays using the following protocol. Plates containing U2OS cells (human osteosarcoma cell line) were fixed in 4% paraformaldehyde in PBS/0.1% Triton X-100 for 15 min at room temperature. The cells were then permeabilized with 2% BSA in PBS/0.1% Triton X-100 for 30 min at room temperature. Diluted primary antibodies in PBS/0.1% Triton X-100 were added to the plates and incubated overnight at 4° C. The plates were washed 3×100 μl with PBS. Based on the calculated protein concentrations, the conjugates were diluted to 4 μg/ml (1:250 from 1 mg/ml stock) in PBS/0.1% Triton X-100 and added to the plates (50 μl/well) and incubated 1 h in the dark at room temperature. The plates were washed 3×100 μl with PBS. One hundred μl of 2 μg/ml Hoechst dye in PBS was added per well. The plates were then scanned on an ArrayScan® Plate Reader for imaging and quantitation.
The inventive compounds and commercial dyes were evaluated for immunofluorescence in cell based assays using the following protocol. Plates containing A550 cells (adenocarcinoma human alveolar basal epithelial cells, P5, Sep. 23, 2010) and stored at −80° C. were placed at 50° C. for 30 min. The storage buffer (PBS) was removed and then the cells were permeabilized for 15 min (100 μl/well) with 0.1% Triton-X100 in 1×PBS buffer. The plates were blocked for 30 min in 2% BSA in 1×PBS-0.1% Triton-X100 and then incubated with primary antibodies diluted in 2% BSA in 1×PBS, 0.1% Trion-X100, overnight at 4° C. […] The remaining wells were incubated in blocking buffer only (no primary antibody). After overnight incubation, the antibody solution was removed from the wells, and the plates were washed with PBS-Tween (2×100 μl/well). The labeled secondary antibody conjugates, diluted to 4 μg/ml in PBS were added to corresponding wells and incubated for 1 h at room temperature (about 20° C. to about 22° C.). The plates were washed 3×100 μl/well with PBS and Hoechst stain diluted 1 μg/ml in PBS were added to each well (100 μl/well) of each plate. The plates were then scanned on the Thermo Scientific ArrayScan® HCS Reader for imaging and quantitation.

[6] = listed as 550 Compound 1(isomer 1)-NHS
[7] = unit size 15 μg, 50° C. for seven days, purity based on ester activity, listed as 550 Compound 1(isomer 1)-NHS
[8] = unit size 50 μg, 50° C. for seven days, purity based on ester activity, listed as 550 Compound 1(isomer 1)-NHS
[9] = unit size 1 mg, 50° C. for seven days, purity based on ester activity
[10] = unit size 15 μg, 50° C. for seven days, purity based on ester activity, listed as 550 Compound 1(isomer 2)-NHS
[11] = unit size 50 μg, 50° C. for seven days, purity based on ester activity, listed as 550 Compound 1(isomer 2)-NHS
[12] = unit size 15 μg, 50° C. for 14 days, purity by HPLC
[13] = unit size 50 μg, 50° C. for 14 days, purity by HPLC
[14] = unit size 60 μg, 50° C. for 14 days, purity by HPLC
[15] = unit size 1 mg, 50° C. for 14 days, purity by HPLC

QY excitation at 500 nm [1, 6]: 0.105
QY excitation at 530 nm [1, 6]: 0.098
Absorption profile [2]: very similar profiles
Purity at day 1 [3, 7]: 95%
Purity at day 7 [3, 7]: 91%
Purity at day 1 [3, 8]: 95%
Purity at day 7 [3, 8]: 91%
Purity at day 1 [3, 9]: 96%
Purity at day 7 [3, 9]: 93%
SMILES: COCCN1/C(=C/C=C/C2=[N+](CCCCCC(=O)ON3C(=O)CCC3=O)c3ccc(S(=O)(=O)[O-])cc3C2(C)CCCS(=O)(=O)O)C(C)(CCCS(=O)(=O)O)c2cc(S(=O)(=O)O)ccc21 (single isomer, unassigned) [550 Compound 1 (isomer 1)-NHS]

QY excitation at 500 nm [1]: 0.096
QY excitation at 530 nm [1]: 0.090
Absorption profile [2]: very similar profiles
Purity at day 1 [3, 10]: 96%
Purity at day 7 [3, 10]: 94%
Purity at day 1 [3, 11]: 96%
Purity at day 7 [3, 11]: 95%
SMILES: COCCN1/C(=C/C=C/C2=[N+](CCCCCC(=O)ON3C(=O)CCC3=O)c3ccc(S(=O)(=O)[O-])cc3C2(C)CCCS(=O)(=O)O)C(C)(CCCS(=O)(=O)O)c2cc(S(=O)(=O)O)ccc21 (single isomer, unassigned) [550 Compound 1 (isomer 2)-NHS]

Emission (Em) [4]: 776 nm
Excitation (Ex) [4]: 754 nm
ε [4]: 220,000 M−1cm−1
QY with excitation at 710 nm [1]: 0.110
Absorption profile [2]: very similar profiles
SMILES: COCCN1/C(=C/C=C/C=C/C=C/C2=[N+](CCCCCC(=O)ON3C(=O)CCC3=O)c3ccc(S(=O)(=O)[O-])cc3C2(C)CCCS(=O)(=O)O)C(C)(CCCS(=O)(=O)O)c2cc(S(=O)(=O)O)ccc21 (single isomer, unassigned) [755 Compound 1 (isomer 2)-NHS]

The remaining lines, values behind:

SMILES: COCCN1/C(=C/C=C/C=C/C=C/C2=[N+](CCCCCC(=O)ON3C(=O)CCC3=O)c3ccc(S(=O)(=O)[O-])cc3C2(C)CCCS(=O)(=O)O)C(C)(CCCS(=O)(=O)O)c2cc(S(=O)(=O)O)ccc21 (single isomer, unassigned) [755 Compound 1 (isomer 1)-NHS]
Emission (Em) [4]: 776 nm
Excitation (Ex) [4]: 754 nm
ε [4]: 220,000 M−1cm−1
QY with excitation at 710 nm [1]: 0.119
Absorption profile [2]: very similar profiles
Purity at day 1 [3, 12]: 99%
Purity at day 14 [3, 12]: 96%
Purity at day 1 [3, 13]: 99%
Purity at day 14 [3, 13]: 97%
Purity at day 1 [3, 14]: 99%
Purity at day 14 [3, 14]: 97%
Purity at day 1 [3, 15]: 99%
Purity at day 14 [3, 15]: 98%

SMILES: COCC[N+]1=C(/C=C/C=C/C=C2/N(CCCCCC(=O)O)c3ccc(S(=O)(=O)O)cc3C2(C)CCCS(=O)(=O)O)C(C)(CCCS(=O)(=O)O)c2cc(S(=O)(=O)O)ccc21.[Na+].[Na+].[Na+] (stereo not shown) [650 Compound 1, 2-{(1E,3E)-5-[1-(5-Carboxypentyl)-3-methyl-5-sulfo-3-(3-sulfopropyl)-1,3-dihydro-indol-(2E)-ylidene]-penta-1,3-dienyl}-1-(2-methoxy-ethyl)-3-methyl-5-sulfo-3-(3-sulfopropyl)-3H-indolium tri sodium salt]
Performance of conjugates (GAM, GAR, SA) in the functional assay in terms of signal-to-noise [5]: superior to DyLight 649 conjugates
Immunofluorescence performance of conjugates compared with commercial DyLight dye (U2OS cells; A550 cells; tri sodium salt): at least similar performance to DyLight 649 conjugates (GAM, GAR), and in some cases superior performance

SMILES: COCCOCC[N+]1=C(/C=C/C=C/C=C2/N(CCCCCC(=O)O)c3ccc(S(=O)(=O)O)cc3C2(C)CCCS(=O)(=O)O)C(C)(CCCS(=O)(=O)O)c2cc(S(=O)(=O)O)ccc21.[Na+].[Na+].[Na+] (stereo not shown) [650 Compound 2, 2-{(1E,3E)-5-[1-(5-carboxypentyl)-3-methyl-5-sulfo-3-(3-sulfopropyl)-1,3-dihydroindol-(2E)-ylidene]-penta-1,3-dienyl}-1-[2-(2-methoxy-ethoxy)-ethyl]-3-methyl-5-sulfo-3-(3-sulfopropyl)-3H-indolium tri sodium salt]
Performance of conjugates (GAM, GAR, SA) in the functional assay in terms of signal-to-noise [5]: superior to DyLight 649 conjugates
Immunofluorescence performance of conjugates compared with commercial DyLight dye (U2OS cells; A550 cells): at least similar performance to DyLight 649 conjugates (GAM, GAR), and in some cases superior performance

SMILES: COCCOCCOCC[N+]1=C(/C=C/C=C/C=C2/N(CCCCCC(=O)O)c3ccc(S(=O)(=O)O)cc3C2(C)CCCS(=O)(=O)O)C(C)(CCCS(=O)(=O)O)c2cc(S(=O)(=O)O)ccc21.[Na+].[Na+].[Na+] (stereo not shown) [650 Compound 3, 2-{(1E,3E)-5-[1-(5-carboxypentyl)-3-methyl-5-sulfo-3-(3-sulfopropyl)-1,3-dihydro-indol-(2E)-ylidene]-penta-1,3-dienyl}-1-{2-[2-(2-methoxy-ethoxy)-ethoxy]-ethyl}-3-methyl-5-sulfo-3-(3-sulfopropyl)-3H-indolium tri sodium salt]
Performance of conjugates (GAM, GAR, SA) in the functional assay in terms of signal-to-noise [5]: superior to DyLight 649 conjugates
Immunofluorescence performance of conjugates compared with commercial DyLight dye (U2OS cells; A550 cells): at least similar performance to DyLight 649 conjugates (GAM, GAR), and in some cases superior performance
